Test results as given in patent US4808711A, “Cephalosporin derivatives” (Sankei Pharmaceutical Co., Ltd., priority 1985, dated 1989).
≈ marks a conversion by molar mass, not a printed value. Counter-ions that a name gives are not always drawn.

Assays:
Format in all cases: cell-based
[1] = test system: E. Coli GN5482; assay: MIC, E. Coli GN5482; settings: Escherichia coli
Experimental: (§1) The minimum inhibition concentrations (MIC) of the compounds obtained by the present invention were measured according to the standard method of Japanese Chemotherapy Association.

[2] = test system: E. cloacae GN7471; assay: MIC, E. cloacae GN7471; settings: Enterobacter cloacae
Experimental: as §1

[3] = test system: C. freundii GN7391; assay: MIC, C. freundii GN7391; settings: Citrobacter freundii
Experimental: as §1

[4] = test system: S. marcescens GN10851; assay: MIC, S. marcescens GN10851; settings: Serratia marcescens
Experimental: as §1

[5] = test system: P. rettgeri GN4430; assay: MIC, P. rettgeri GN4430; settings: Providencia rettgeri
Experimental: as §1

[6] = test system: P. morganii GN5407; assay: MIC, P. morganii GN5407; settings: Morganella morganii
Experimental: as §1

[7] = test system: P. vulgaris GN7919; assay: MIC, P. vulgaris GN7919; settings: Proteus vulgaris
Experimental: as §1

[8] = test system: P. aeruginosa GN10; assay: MIC, P. aeruginosa GN10; settings: Pseudomonas aeruginosa
Experimental: as §1

[9] = test system: E. coli W3630/Rms212; assay: MIC, E. coli W3630/Rms212; settings: Escherichia coli
Experimental: as §1

[10] = test system: E. coli W3630/Rms213; assay: MIC, E. coli W3630/Rms213; settings: Escherichia coli
Experimental: as §1

[11] = test system: E. coli W3630/Rte16; assay: MIC, E. coli W3630/Rte16; settings: Escherichia coli
Experimental: as §1

[12] = test system: S. aureus TASAKI; assay: MIC, S. aureus TASAKI; settings: Staphylococcus aureus; S. aureus TASAKI; standard method of Japanese Chemotherapy Association; read-out: MIC
Experimental: as §1

[13] = test system: S. aureus 209P JC-1; assay: MIC, S. aureus 209P JC-1; settings: Staphylococcus aureus; S. aureus 209P JC-1; read-out: MIC
Experimental: as §1

[14] = test system: S. aureus ATCC25923; assay: MIC, S. aureus ATCC25923; settings: Staphylococcus aureus; S. aureus ATCC25923; read-out: MIC
Experimental: as §1

[15] = test system: S. aureus Smith; assay: MIC, S. aureus Smith; settings: Staphylococcus aureus, read-out: MIC
Experimental: as §1

[16] = test system: S. epidermidis ATCC14990; assay: MIC, S. epidermidis ATCC14990; settings: Staphylococcus epidermidis, read-out: MIC
Experimental: as §1

[17] = test system: S. faecalis IFO3826; assay: MIC, S. faecalis IFO3826; settings: Enterococcus faecalis, read-out: MIC
Experimental: as §1

[18] = test system: B. subtilis ATCC6633; assay: MIC, B. subtilis ATCC6633; settings: Bacillus subtilis; B. subtilis ATCC6633; read-out: MIC
Experimental: as §1

[19] = test system: S. anatum 677-69; assay: MIC, S. anatum 677-69; settings: Salmonella enterica, 67769, read-out: MIC
Experimental: as §1

[20] = test system: S. newport 563; assay: MIC, S. newport 563; settings: Salmonella enterica, read-out: MIC
Experimental: as §1

[21] = test system: S. paratyphi A 144-12-93; assay: MIC, S. paratyphi A 144-12-93; settings: Salmonella enterica, PARATYPHI
Experimental: as §1

[22] = test system: S. paratyphi B; assay: MIC, S. paratyphi B; settings: Salmonella enterica, PARATYPHI
Experimental: as §1

[23] = test system: S. paratyphi C 33-76; assay: MIC, S. paratyphi C 33-76; settings: Salmonella enterica, PARATYPHI
Experimental: as §1

[24] = test system: S. typhi 1099-77; assay: MIC, S. typhi 1099-77; settings: Salmonella enterica, TYPHI
Experimental: as §1

[25] = test system: S. typhimurium ATCC13311; assay: MIC, S. typhimurium ATCC13311; settings: Salmonella enterica, read-out: MIC
Experimental: as §1

[26] = test system: S. typhimurium IFO 12529; assay: MIC, S. typhimurium IFO 12529; settings: Salmonella enterica, read-out: MIC
Experimental: as §1

[27] = test system: S. boyadii CDC 2064-59; assay: MIC, S. boyadii CDC 2064-59
Experimental: as §1

[28] = test system: S. dysenteriae 4379-60; assay: MIC, S. dysenteriae 4379-60; settings: Shigella dysenteriae, 437960
Experimental: as §1

[29] = test system: S. flexneri 2a CDC 4807-62; assay: MIC, S. flexneri 2a CDC 4807-62; settings: Shigella flexneri, read-out: MIC
Experimental: as §1

[30] = test system: S. flexneri Y NCTC 9730; assay: MIC, S. flexneri Y NCTC 9730; settings: Shigella flexneri, NCTC9730, read-out: MIC
Experimental: as §1

[31] = test system: S. sonnei SH72-415; assay: MIC, S. sonnei SH72-415; settings: Shigella sonnei, SH72415, read-out: MIC
Experimental: as §1

[32] = test system: E. coli ATCC25922; assay: MIC, E. coli ATCC25922; settings: Escherichia coli, read-out: MIC
Experimental: as §1

[33] = test system: E. coli NIHJ JC-2; assay: MIC, E. coli NIHJ JC-2; settings: Escherichia coli, NIHJJC2, read-out: MIC
Experimental: as §1

[34] = test system: C. freundii IFO12681; assay: MIC, C. freundii IFO12681; settings: Citrobacter freundii, read-out: MIC
Experimental: as §1

[35] = test system: S. marcescens IFO12648; assay: MIC, S. marcescens IFO12648; settings: Serratia marcescens, read-out: MIC
Experimental: as §1

[36] = test system: E. cloacae ATCC13047; assay: MIC, E. cloacae ATCC13047; settings: Enterobacter cloacae
Experimental: as §1

[37] = test system: K. pneumoniae ATCC27736; assay: MIC, K. pneumoniae ATCC27736; settings: Klebsiella pneumoniae, read-out: MIC
Experimental: as §1

[38] = test system: P. mirabilis IFO3849; assay: MIC, P. mirabilis IFO3849; settings: Proteus mirabilis, read-out: MIC
Experimental: as §1

[39] = test system: P. rettgeri ATCC14505; assay: MIC, P. rettgeri ATCC14505; settings: Providencia rettgeri, read-out: MIC
Experimental: as §1

[40] = test system: P. vulgaris ATCC6380; assay: MIC, P. vulgaris ATCC6380; settings: Proteus vulgaris, read-out: MIC
Experimental: as §1

[41] = test system: P. vulgaris ATCC6398; assay: MIC, P. vulgaris ATCC6398; settings: Proteus vulgaris, read-out: MIC
Experimental: as §1

[42] = test system: P. aeruginosa ATCC9721; assay: MIC, P. aeruginosa ATCC9721; settings: Pseudomonas aeruginosa; P. aeruginosa ATCC9721; read-out: MIC
Experimental: as §1

[43] = test system: P. cepacia ATCC25416; assay: MIC, P. cepacia ATCC25416; settings: Burkholderia cepacia, read-out: MIC
Experimental: as §1

[44] = test system: P. maltophilia ATCC13637; assay: MIC, P. maltophilia ATCC13637; settings: Stenotrophomonas maltophilia
Experimental: as §1

[45] = test system: P. putida ATCC12633; assay: MIC, P. putida ATCC12633; settings: Pseudomonas putida
Experimental: as §1

[46] = test system: P. fluorescens ATCC13525; assay: MIC, P. fluorescens ATCC13525; settings: Pseudomonas fluorescens, read-out: MIC
Experimental: as §1

Structure (SMILES): CC(=NNC(=O)NC(C(=O)NC1C(=O)N2C(C(=O)O)=C(CSc3nncs3)CSC12)c1csc(N)n1)c1cccc(O)c1 (stereo not drawn) [Example 104]
- MIC [1]: 0.78 µg/mL (≈ 1.18 µM)
- MIC [2]: 3.13 µg/mL (≈ 4.73 µM)
- MIC [3]: 100 µg/mL (≈ 151 µM)
- MIC [4]: 100 µg/mL (≈ 151 µM)
- MIC [5]: 0.2 µg/mL (≈ 0.302 µM)
- MIC [6]: 0.39 µg/mL (≈ 0.589 µM)
- MIC [7]: 50 µg/mL (≈ 75.6 µM)
- MIC [8]: 6.25 µg/mL (≈ 9.44 µM)
- MIC [9]: 0.39 µg/mL (≈ 0.589 µM)
- MIC [10]: 0.1 µg/mL (≈ 0.151 µM)
- MIC [11]: 0.2 µg/mL (≈ 0.302 µM)

Structure (SMILES): Cn1nnnc1SCC1=C(C(=O)O)N2C(=O)C(NC(=O)C(=NOCC(=O)NN=Cc3ccc(O)c(O)c3)c3csc(N)n3)C2SC1 (stereo not drawn) [Example 2, 7-{2-[2-amino-1,3-thiazol-4-yl]-2-[3-(3,4-dihydroxybenzylidene)carbazoyl]methoxyiminoacetamido}-3-[(1-methyl-1,2,3,4-tetrazol-5-yl)thiomethyl]-3-cephem-4-carboxylic acid.hydrochloride]
- MIC [12]: 1.56 µg/mL
- MIC [13]: 0.78 µg/mL
- MIC [14]: 0.78 µg/mL
- MIC [15]: 3.13 µg/mL
- MIC [16]: 0.78 µg/mL
- MIC [17]: > 100 µg/mL
- MIC [18]: 0.39 µg/mL
- MIC [19]: 0.05 µg/mL
- MIC [20]: 0.05 µg/mL
- MIC [21]: 0.05 µg/mL
- MIC [22]: 0.025 µg/mL
- MIC [23]: 0.012 µg/mL
- MIC [24]: ≤ 6 ng/mL
- MIC [25]: 0.05 µg/mL
- MIC [26]: 0.39 µg/mL
- MIC [27]: 0.78 µg/mL
- MIC [28]: 0.025 µg/mL
- MIC [29]: 0.1 µg/mL
- MIC [30]: 0.78 µg/mL
- MIC [31]: 0.05 µg/mL
- MIC [32]: 0.2 µg/mL
- MIC [33]: 0.39 µg/mL
- MIC [34]: 0.39 µg/mL
- MIC [35]: 0.39 µg/mL
- MIC [36]: 3.13 µg/mL
- MIC [37]: 0.025 µg/mL
- MIC [38]: 0.2 µg/mL
- MIC [39]: 0.39 µg/mL
- MIC [40]: 0.2 µg/mL
- MIC [41]: 0.05 µg/mL
- MIC [42]: 0.2 µg/mL
- MIC [43]: 0.78 µg/mL
- MIC [44]: 1.56 µg/mL
- MIC [45]: 1.56 µg/mL
- MIC [46]: 12.5 µg/mL

Structure (SMILES): CC(=O)Oc1cc(OC(C)=O)cc(C(=O)NNC(=O)NC(C(=O)NC2C(=O)N3C(C(=O)O)=C(CSc4nncs4)CSC23)c2csc(N)n2)c1 (stereo not drawn) [Example 118]
- MIC [1]: 1.56 µg/mL (≈ 2.04 µM)
- MIC [2]: 6.25 µg/mL (≈ 8.18 µM)
- MIC [3]: > 100 µg/mL
- MIC [4]: 100 µg/mL (≈ 131 µM)
- MIC [5]: 0.39 µg/mL (≈ 0.511 µM)
- MIC [6]: 0.78 µg/mL (≈ 1.02 µM)
- MIC [7]: 100 µg/mL (≈ 131 µM)
- MIC [8]: 6.25 µg/mL (≈ 8.18 µM)
- MIC [9]: 0.39 µg/mL (≈ 0.511 µM)
- MIC [10]: 0.2 µg/mL (≈ 0.262 µM)
- MIC [11]: 0.39 µg/mL (≈ 0.511 µM)
